Source: patent US12115182B2, “Adenosine A2A agonists for the treatment of cytokine storm syndrome” (priority 2021, dated 2024)
“Also recorded” adds a separate entry of the source.

Tests used:
[1] = test system: BAL fluid cytokines and chemokines; experiment: BAL fluid cytokines/chemokines (31 plex Luminex) in SARS CoV-2-infected K18-hACE2 mice; format: in vivo, mouse
Procedure: Apadenoson treatment elicits cytokine and chemokine responses that are associated with a decrease in weight loss. To assess how apadenoson treatment may be delaying the onset of severe symptoms, mice were treated as before with either vehicle (saline) or apadenoson, delivered with a five-hour delay by osmotic pumps, then euthanized on day five post-infection.
BAL Cytokines: BAL fluid was collected with 700 μL of PBS and cells were removed via centrifugation. The BAL fluid was analyzed by a Luminex Magpix by the UVA Flow Cytometry Core facility using a Mouse 31 plex panel. Statistical changes in cytokine levels were analyzed using Welch's ANOVA followed by Dunnett's T3 multiple comparisons (Graphpad Prism 9.0). P values were adjusted for multiple testing using the Holm-Sidak method.

SARS CoV-2 [2] = experiment: Viral lung titers (plaque assay) and viral burden (IHC) in K18-hACE2 mice; format: in vivo, mouse
Procedure: Viral Lung titers: Titers were determined as described in Moreau et al. (MOREAU et al., Am. J. Trop. Med. Hyg., (2020), 103:1215-1219). Briefly, lungs were homogenized in serum-free DMEM. Titers were determined by infecting Vero C1008, Clone E6 (ATCC CRL-1586) with serial dilutions of the homogenate. After a two-hour incubation, the diluted homogenates were replaced with a liquid overlay of DMEM, 2.5% FBS containing 1.2% Avicel PH-101 (Sigma Aldrich, St. Louis, MO) and incubated at 37° C., 5% CO2. After three days, the overlay was removed, wells were fixed with 10% formaldehyde, and stained with 0.1% crystal violet to visualize plaques. Plaques were counted and PFUs were calculated according to the following equation: Average # of plaques/dilution factor×volume of diluted virus added to the well.
Histology: Tissues were fixed in 10% formalin. To visualize virus in the lungs, slides were stained with SARS-CoV2 specific anti-nucleoprotein antibody (Cat. No. 9099, ProSci, Poway, CA) as per manufacturer's instructions and then scanned at 20× magnification. The percentage of lung tissue infected with virus was calculated (ImageJ, version 1.53K).

MHS cells = experiment: RAGE shedding in alveolar macrophages (MHS): Western blot of sRAGE, immunofluorescence of RAGE; format: cell-based, mouse; details: GM6001 2 nM, regadenoson 100 nM; for PMA-induced shedding of cell membrane-anchored RAGE: PMA-treated MHS cells, ATL146e 10 nM
[3] = test system: SARS-CoV-2 strain B.1.351; format: in vivo, Golden Syrian hamster
SARS CoV-2 [4] = experiment: Apadenoson in K18-hACE2 mouse model of COVID-19: survival, weight, clinical scores; details: for mice survived (combined survival data): Alzet pump 1.44 ug/kg/h, 1250 PFU
Procedure: K18-hACE2 mice, ranging in age from 17 to 30 weeks were divided into three groups. One group received saline (vehicle), another received apadenoson 18 hours before viral challenge (drug) and a third received apadenoson five hours post viral challenge (drug with delay). The mice were challenged intranasally with 1250 PFU SARS CoV-2. Mouse weight and clinical scores were recorded daily. Mice were euthanized when they met the criteria for euthanasia (see methods) or at the end of the experiment, which was day 12 post viral challenge.
Infection and treatment: Twenty-four hours prior to infecting Tg(K18-hACE2)2Prlmn (Jackson Laboratories) male mice with SARS CoV-2, primed 7-day Alzet® osmotic pumps (Durect, Cuperton, CA) containing saline or drug were implanted subcutaneously (MCCRAY et al., J. Virol., (2007), 81:813-821). In the drug with delay treatment group drug delivery was delayed by 24 hours by adding 2.5 cm long tubing to the pump. Apadenoson was delivered at a rate of 1.5 μg/kg/hr. Uninfected littermates received saline or drug with delay via osmotic pumps. Mice were challenged with 1250 plaque forming units (PFU) of Hong Kong/VM20001061/2020 (NR-52282, BEI Resources) via intranasal route under ketamine/xylazine anesthesia. Mice were examined twice daily for clinical symptoms and scored using the following criteria: weight loss (0-5, in 5% of initial weight loss increments), reduced activity (0-3), ruffled fur appearance and hunched posture (0-2), and an eye closure (0-2). Mice were euthanized when weight was <80% of initial weight or when they scored a maximum in two symptom categories. This experiment was repeated three times, with six animals per treatment group each time. […] Statistical differences in weight loss and clinical scores by treatment group were determined using linear mixed models accounting for day post-infection and the day the mouse died (Ime4 and ImerTest packages (BATES et al., J. Stat. Softw., (2015), 67; KUZNETSOVA et al., J. Stat. Softw., (2021), 82) in R (R Core Team 2021). For mice surviving to the end of the experiment (day 12 post-infection), day of death=15 was used. All mouse work was approved by the University's Institutional Animal Care and Use Committee and all procedures were performed in the University's certified animal Biosafety Level Three laboratory, which is fully accredited by the Association for the Assessment and Accreditation of Laboratory Animal Care, International (AAALAC).

COVID-19 patients = details: cited from earlier work
[5] = drug with delay treatment group
[6] = PI day 7, compared to control group
[7] = drug and drug with delay-treated groups

For `CCNC(=O)[C@H]1O[C@@H](n2cnc3c(N)nc(C#CC[C@H]4CC[C@H](C(=O)OC)CC4)nc32)[C@H](O)[C@@H]1O` [Apadenoson], the “cytokines/chemokines not different between uninfected, vehicle-infected control and drug with delay-infected mice” value ([1]; BAL fluid, day five post-infection) was 18/31, the “levels of eight cytokines and chemokines (MIG, G-CSF, Eotaxin, MIP1b, VEGF, INF-g, TNF-a, KC) in BAL fluid” value [1, 5] was “not significantly different from uninfected mice” and the “IP-10 level in BAL fluid” value ([1]; drug with delay-infected group compared to vehicle, p=0.0223) was “statistically higher”. The “MCP-1 level in BAL fluid” value ([1]; drug with delay-infected group compared to vehicle, p=0.0351) was “statistically higher”, the “viral titers in lungs of surviving mice” value (SARS CoV-2 [2]; both drug treatment groups) was “below the limit of detection” and the “average viral titer of lung homogenates” value (SARS CoV-2 [2]; [5]) was “trended lower, but was not significant; also recorded: trended lower”. The “viral burden in lungs by IHC staining” value (SARS CoV-2 [2]; drug with delay treatment group, p=0.0012) was “significantly lower”, the “PMA-induced shedding of cell membrane-anchored RAGE” value (“PMA-induced shedding” for short) (MHS cells) was “partially inhibited” and the “PMA-induced shedding” value (MHS cells; listed as apadensoson) was “suppressed the shedding of RAGE”. For the same compound, the “albumin leakage into BAL” value [3, 6] was “slight decrease; also recorded: did not significantly”, the “plasma IL13” value [3, 6] was “slightly elevated; also recorded: did not significantly” and the “time course of the disease or viral titer detected in throat swabs” value ([3]; RT-qPCR) was “did not significantly”. For the same compound, the “plasma IL4” value ([3]; compared to control) was “depressed; also recorded: did significantly”, the “decrease in weight gain” value ([3]; daily weights, vs control group) was “did not significantly” and the “histologic distribution or severity of lung pathology” value ([3]; day 7) was “did not significantly”. The “plasma Transforming Growth Factor beta (TGFb)” value ([3]; day 7, compared to control) was “decreased; also recorded: did significantly”, the “spread of virus to olfactory bulb (brain)” value ([3]; day 7, compared to control) was “decreased; also recorded: did significantly” and the “respiratory physiology parameters (EF50, Rpef, Penh)” value ([3]; whole body plethysmography, PI day 7) was “did not significantly”. For the same compound, the “clinical scores compared to vehicle” value (SARS CoV-2 [4]; [7]) was “statistically significantly lower”, the “weight loss compared to vehicle” value (SARS CoV-2 [4]; [7]) was “less weight loss” and the “weight loss and clinical scores on day five post-infection” value (SARS CoV-2 [4]; drug with delay vs vehicle) was “not statistically different between groups”. The “mice survived (combined survival data)” value (SARS CoV-2 [4]; drug with delay) was 5/12, the “survival curve compared to vehicle” value (SARS CoV-2 [4]; drug with delay-treated group, p=0.0002) was “significantly different than vehicle” and the “mice survived (combined survival data)” value (SARS CoV-2 [4]; drug with no delay) was 4/12. For the same compound, the “survival curve compared to vehicle” value (SARS CoV-2 [4]; drug-treated group, p=0.066) was “did not differ significantly”.
For `CNC(=O)[C@H](Cc1c[nH]c2ccccc12)NC(=O)[C@@H](CC(=O)NO)CC(C)C` [GM6001], the “sRAGE shedding on LPS-treated MHS cells” value (MHS cells; LPS 75 ng/ml, apadenoson 10 nM) was “inhibited sRAGE shedding”, the “levels of sRAGE in the conditional media (Western blot)” value (MHS cells; PMA (20 nM)-treated MHS cells, 24 hours) was “decreased” and the “PMA-induced shedding” value (MHS cells) was “suppressed the shedding of RAGE; also recorded: partially blocked”.
For `Nc1ncnc2c1ncn2[C@@H]1O[C@H](CO)[C@@H](O)[C@H]1O` [adenosine], the “increase in PaO2/FiO2-ratio” value (COVID-19 patients; aerosolized, twice daily, in 13 out of 14 patients) is given as over 30% and the death rate (COVID-19 patients; inhaled adenosine group, 1/14, control group 11/52 (21%)) is given as 7%.
